In the test the target is IDH1 R132H (Homo sapiens, UniProt O75874, R132H). Kind of test: Assay for IDH1 R132H inhibitors (NADPH/aKG, resazurin detection). Format: biochemical. The following applies: Table 3; enzyme assay, 50 minutes at room temperature; read-out: IC50 (IDH1 R132H Inhibition). The essentials: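 Compound added to substrate mix (8 uM NADPH, 2 mM aKG), then enzyme mix (0.2 μg/ml IDH1 R132H); 50 min RT in 20 mM Tris pH 7.5, 150 mM NaCl, 10 mM MgCl2, 0.03% BSA. Resazurin detection mix (30 μM) 5 min RT; resorufin fluorescence Ex544/Em590.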
Sequence of IDH1 R132H (O75874 whole entry R132H): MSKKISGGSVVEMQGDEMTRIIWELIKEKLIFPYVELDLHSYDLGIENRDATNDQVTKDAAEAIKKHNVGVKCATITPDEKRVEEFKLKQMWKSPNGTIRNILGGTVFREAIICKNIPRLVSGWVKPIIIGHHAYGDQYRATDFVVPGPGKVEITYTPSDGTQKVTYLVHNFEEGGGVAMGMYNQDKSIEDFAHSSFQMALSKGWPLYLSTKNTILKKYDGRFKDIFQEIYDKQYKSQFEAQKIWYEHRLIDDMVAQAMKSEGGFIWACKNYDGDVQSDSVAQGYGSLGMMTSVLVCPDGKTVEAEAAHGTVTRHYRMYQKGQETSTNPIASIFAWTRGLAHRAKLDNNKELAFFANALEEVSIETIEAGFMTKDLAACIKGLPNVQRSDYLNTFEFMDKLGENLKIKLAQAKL

Regarding `COc1ccccc1-c1cc(C#N)c(N2CCN(C(=O)Cc3cccs3)[C@H](C)C2)nc1C(C)C` [Compound 177, (R)-6-isopropyl-5-(2-methoxyphenyl)-2-(3-methyl-4-(2-(thiophen-2-yl)acetyl)piperazin-1-yl)nicotinonitril-e], the IC50 – broadly, the concentration needed to halve the response being measured – lay within 1000 to 5000 nM.
Then `COc1ccccc1-c1cc(C#N)c(N2CCN(C(=O)c3ccoc3C)[C@H](C)C2)nc1C(C)C` [Compound 178, (R)-6-isopropyl-5-(2-methoxyphenyl)-2-(3-methyl-4-(2-methylfuran-3-carbonyl)piperazin-1-yl)nicotino-nitrile], with 1000 to 5000 nM; and `Cc1ccc(-c2cc(C#N)c(N3CCN(C(=O)c4ccoc4)[C@H](C)C3)nc2C(C)C)cc1` [Compound 179, (R)-2-(4-(furan-3-carbonyl)-3-methylpiperazin-1-yl)-6-isopropyl-5-p-tolylnicotinonitrile], with 1000 to 5000 nM.
Next, `Cc1ccc(-c2cc(C#N)c(N3CCN(C(=O)c4ccco4)[C@H](C)C3)nc2C(C)C)cc1` [Compound 180, (R)-2-(4-(furan-2-carbonyl)-3-methylpiperazin-1-yl)-6-isopropyl-5-p-tolylnicotinonitrile]: 1000 to 5000 nM; `Cc1ccc(-c2cc(C#N)c(N3CCN(C(=O)Cc4cccs4)[C@H](C)C3)nc2C(C)C)cc1` [Compound 181, (R)-6-isopropyl-2-(3-methyl-4-(2-(thiophen-2-yl)acetyl)piperazin-1-yl)-5-p-tolylnicotinonitrile]: 1000 to 5000 nM.
Turning to `Cc1ccc(-c2cc(C#N)c(N3CCN(C(=O)c4ccoc4C)[C@H](C)C3)nc2C(C)C)cc1` [Compound 182, (R)-6-isopropyl-2-(3-methyl-4-(2-methylfuran-3-carbonyl)piperazin-1-yl)-5-p-tolylnicotinonitrile], the IC50 was no more than 1000 nM.
Consider `COCCC(=O)N1CCN(c2nc(C(C)C)c(-c3ccccc3OC)cc2C#N)C[C@H]1C` [Compound 183, (R)-6-isopropyl-5-(2-methoxyphenyl)-2-(4-(3-methoxypropanoyl)-3-methylpiperazin-1-yl)nicotinonitrile], for which the IC50 was 1000 to 5000 nM.
As for `CCOc1ccccc1-c1cc(C#N)c(N2CCN(C(=O)c3ccco3)C[C@@H]2C)nc1C(C)C` [Compound 184, (S)-5-(2-ethoxyphenyl)-2-(4-(furan-2-carbonyl)-2-methylpiperazin-1-yl)-6-isopropylnicotinonitrile], the IC50 was in the range of 1000 to 5000 nM.
Then `CC(C)c1nc(N2CCN(C(=O)c3ccco3)[C@H](C)C2)c(C#N)cc1-c1ccc(C(F)(F)F)cc1` [Compound 185, (R)-2-(4-(furan-2-carbonyl)-3-methylpiperazin-1-yl)-6-isopropyl-5-(4-(trifluoromethyl)phenyl) nicotinonitrile], with 1000 to 5000 nM; and `CC(C)c1nc(N2CCN(C(=O)c3ccoc3)[C@H](C)C2)c(C#N)cc1-c1ccc(C(F)(F)F)cc1` [Compound 187, (R)-2-(4-(furan-3-carbonyl)-3-methylpiperazin-1-yl)-6-isopropyl-5-(4-(trifluoromethyl)phenyl)nicotinonitrile], with no more than 1000 nM.
Consider `CC(C)c1nc(N2CCN(C(=O)Cc3cccs3)[C@H](C)C2)c(C#N)cc1-c1ccc(C(F)(F)F)cc1` [Compound 188, (R)-6-isopropyl-2-(3-methyl-4-(2-(thiophen-2-yl)acetyl)piperazin-1-yl)-5-(4-(trifluoromethyl)phenyl)nicotinonitrile], for which the IC50 was in the range of 1000 to 5000 nM.
Then `COCCC(=O)N1CCN(c2nc(C(C)C)c(-c3ccc(C(F)(F)F)cc3)cc2C#N)C[C@H]1C` [Compound 189, (R)-6-isopropyl-2-(4-(3-methoxypropanoyl)-3-methylpiperazin-1-yl)-5-(4-(trifluoromethyl)phenyl)-nicotinonitrile], with 1000 to 5000 nM.
Next, `Cc1cccc(-c2cc(C#N)c(N3CCN(C(=O)c4ccco4)[C@H](C)C3)nc2C(C)C)c1` [Compound 190]: 5000 to 15000 nM.
For `Cc1cccc(-c2cc(C#N)c(N3CCN(C(=O)c4ccoc4)[C@H](C)C3)nc2C(C)C)c1` [Compound 191], the IC50 is no more than 1000 nM.
Turning to `Cc1cccc(-c2cc(C#N)c(N3CCN(C(=O)Cc4cccs4)[C@H](C)C3)nc2C(C)C)c1` [Compound 192, (R)-6-isopropyl-2-(3-methyl-4-(2-(thiophen-2-yl)acetyl)piperazin-1-yl)-5-m-tolylnicotinonitrile], the IC50 lay in the range of 1000 to 5000 nM.
`COCCC(=O)N1CCN(c2nc(C(C)C)c(-c3cccc(C)c3)cc2C#N)C[C@H]1C` [Compound 193, (R)-6-isopropyl-2-(4-(3-methoxypropanoyl)-3-methylpiperazin-1-yl)-5-m-tolylnicotinonitrile]: the IC50 was in the range of 1000 to 5000 nM.
Next, `CC(C)c1nc(N2CCN(C(=O)c3ccoc3)[C@H](C(C)C)C2)c(C#N)cc1-c1ccc(C(F)(F)F)cc1` [Compound 195]: 1000 to 5000 nM; `CC(C)c1nc(N2CCN(C(=O)Cc3cccs3)[C@H](C(C)C)C2)c(C#N)cc1-c1ccc(C(F)(F)F)cc1` [Compound 196, (R)-6-isopropyl-2-(3-isopropyl-4-(2-(thiophen-2-yl)acetyl)piperazin-1-yl)-5-(4-(trifluoromethyl)phenyl)-nicotinonitrile]: 1000 to 5000 nM; `COCCC(=O)N1CCN(c2nc(C(C)C)c(-c3ccc(C(F)(F)F)cc3)cc2C#N)C[C@H]1C(C)C` [Compound 197, (R)-6-isopropyl-2-(3-isopropyl-4-(3-methoxypropanoyl)piperazin-1-yl)-5-(4-(trifluoromethyl)phenyl)nicotinonitrile]: 1000 to 5000 nM.
As for `COCCC(=O)N1CCN(c2nc(C(C)C)c(-c3ccc(C)cc3)cc2C#N)C[C@H]1C` [Compound 198, (R)-6-isopropyl-2-(4-(3-methoxypropanoyl)-3-methylpiperazin-1-yl)-5-p-tolylnicotinonitrile], the half-maximal inhibitory concentration (IC50) fell in the range of 1000 to 5000 nM.
Consider `Cc1occc1C(=O)N1CCN(c2nc(C(C)C)c(-c3ccc(F)cc3)cc2C#N)C[C@H]1C` [Compound 199, (R)-5-(4-fluorophenyl)-6-isopropyl-2-(3-methyl-4-(2-methylfuran-3-carbonyl)piperazin-1-yl)nicotinonitrile], for which the IC50 was in the range of 1000 to 5000 nM.
Then `Cc1cccc(-c2cc(C#N)c(N3CCN(C(=O)c4ccoc4C)[C@H](C)C3)nc2C(C)C)c1` [Compound 200, (R)-6-isopropyl-2-(3-methyl-4-(2-methylfuran-3-carbonyl)piperazin-1-yl)-5-m-tolylnicotinonitrile], with 1000 to 5000 nM; and `Cc1occc1C(=O)N1CCN(c2nc(C(C)C)c(-c3ccc(C(F)(F)F)cc3)cc2C#N)C[C@H]1C` [Compound 201, (R)-6-isopropyl-2-(3-methyl-4-(2-methylfuran-3-carbonyl)piperazin-1-yl)-5-(4-(trifluoromethyl)phenyl)-nicotinonitrile], with 1000 to 5000 nM; and `Cc1occc1C(=O)N1CCN(c2nc(C(C)C)c(-c3ccc(C(C)C)cc3)cc2C#N)C[C@H]1C` [Compound 202, (R)-6-isopropyl-5-(4-isopropylphenyl)-2-(3-methyl-4-(2-methylfuran-3-carbonyl)piperazin-1-yl)nicotinonitrile], with 1000 to 5000 nM.
For the compound `Cc1occc1C(=O)N1CCN(c2nc(C(C)C)c(-c3ccoc3)cc2C#N)C[C@H]1C` [Compound 203, (R)-5-(furan-3-yl)-6-isopropyl-2-(3-methyl-4-(2-methylfuran-3-carbonyl)piperazin-1-yl)nicotinonitrile], the IC50 fell in the range of 1000 to 5000 nM.

These data come from patent US9856279B2 (AGIOS PHARMACEUTICALS, INC, priority 2011, dated 2018).
